{"source": "ChEMBL document CHEMBL5212743", "about": "“Selectivity Literature for EUbOPEN Chemogenomics Library wave 3” (2023)", "key": {"[1]": {"target": "5-hydroxytryptamine receptor 1A (Homo sapiens, UniProt P08908)", "sequence (P08908 whole entry)": "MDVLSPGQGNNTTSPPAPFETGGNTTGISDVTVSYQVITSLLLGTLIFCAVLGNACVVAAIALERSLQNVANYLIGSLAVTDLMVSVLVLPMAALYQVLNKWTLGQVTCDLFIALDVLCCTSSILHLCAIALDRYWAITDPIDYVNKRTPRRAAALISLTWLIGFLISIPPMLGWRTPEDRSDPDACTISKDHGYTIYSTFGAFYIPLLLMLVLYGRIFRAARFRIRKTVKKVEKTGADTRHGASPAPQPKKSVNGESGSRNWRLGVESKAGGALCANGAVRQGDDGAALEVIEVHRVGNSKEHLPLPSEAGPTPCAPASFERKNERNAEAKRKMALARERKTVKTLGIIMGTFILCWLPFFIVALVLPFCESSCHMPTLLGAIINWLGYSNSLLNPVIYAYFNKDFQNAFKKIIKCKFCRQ", "test": "Selectivity interaction (GPCR panel (PDSP screen)) EUB0000705a HTR1A"}, "[2]": {"target": "T1, Alpha-1A adrenergic receptor (Homo sapiens, UniProt P35348)", "T1 sequence (P35348 whole entry)": "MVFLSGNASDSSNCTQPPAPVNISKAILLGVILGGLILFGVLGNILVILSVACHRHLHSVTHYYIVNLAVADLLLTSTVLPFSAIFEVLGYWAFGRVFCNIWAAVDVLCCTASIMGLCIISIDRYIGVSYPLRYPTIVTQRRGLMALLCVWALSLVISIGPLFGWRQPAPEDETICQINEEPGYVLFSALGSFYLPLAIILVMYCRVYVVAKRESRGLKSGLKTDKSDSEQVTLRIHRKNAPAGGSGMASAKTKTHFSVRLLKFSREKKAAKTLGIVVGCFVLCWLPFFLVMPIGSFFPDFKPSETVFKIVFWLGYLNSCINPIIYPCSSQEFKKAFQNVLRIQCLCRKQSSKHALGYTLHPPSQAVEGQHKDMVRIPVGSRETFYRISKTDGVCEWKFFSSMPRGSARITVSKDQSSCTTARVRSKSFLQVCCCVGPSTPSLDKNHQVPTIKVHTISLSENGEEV", "test": "Selectivity interaction (GPCR panel (PDSP screen)) EUB0000705a ADRA1A"}, "[3]": {"target": "T2, Alpha-1D adrenergic receptor (Homo sapiens, UniProt P25100)", "T2 sequence (P25100 whole entry)": "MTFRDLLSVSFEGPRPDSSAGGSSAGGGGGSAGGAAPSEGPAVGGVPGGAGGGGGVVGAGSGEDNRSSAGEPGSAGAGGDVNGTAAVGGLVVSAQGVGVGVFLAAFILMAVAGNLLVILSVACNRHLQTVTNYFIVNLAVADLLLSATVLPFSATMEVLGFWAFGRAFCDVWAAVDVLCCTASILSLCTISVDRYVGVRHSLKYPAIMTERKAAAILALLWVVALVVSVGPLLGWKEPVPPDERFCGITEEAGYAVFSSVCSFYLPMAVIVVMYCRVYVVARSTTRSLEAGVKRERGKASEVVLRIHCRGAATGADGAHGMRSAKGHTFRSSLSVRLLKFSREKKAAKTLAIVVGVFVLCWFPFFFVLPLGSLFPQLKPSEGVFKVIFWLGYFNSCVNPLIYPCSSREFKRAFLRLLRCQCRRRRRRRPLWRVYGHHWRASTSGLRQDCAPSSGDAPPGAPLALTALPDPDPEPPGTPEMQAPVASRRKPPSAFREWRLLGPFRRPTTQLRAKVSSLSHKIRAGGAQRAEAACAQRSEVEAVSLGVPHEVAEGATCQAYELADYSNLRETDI", "test": "Selectivity interaction (GPCR panel (PDSP screen)) EUB0000705a ADRA1D"}, "[4]": {"target": "T3, Alpha-2C adrenergic receptor (Homo sapiens, UniProt P18825)", "T3 sequence (P18825 whole entry)": "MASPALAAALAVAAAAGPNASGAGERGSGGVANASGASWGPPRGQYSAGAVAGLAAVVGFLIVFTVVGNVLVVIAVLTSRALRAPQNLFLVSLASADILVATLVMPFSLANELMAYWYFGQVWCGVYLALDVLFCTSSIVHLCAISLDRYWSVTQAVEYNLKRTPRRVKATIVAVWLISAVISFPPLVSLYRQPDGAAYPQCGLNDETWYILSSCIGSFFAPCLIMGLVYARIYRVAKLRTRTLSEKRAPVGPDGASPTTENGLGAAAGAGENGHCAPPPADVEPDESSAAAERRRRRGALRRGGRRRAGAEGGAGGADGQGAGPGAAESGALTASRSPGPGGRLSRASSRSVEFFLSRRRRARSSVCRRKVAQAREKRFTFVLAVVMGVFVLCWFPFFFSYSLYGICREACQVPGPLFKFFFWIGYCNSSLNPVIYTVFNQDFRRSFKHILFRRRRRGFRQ", "test": "Selectivity interaction (GPCR panel (PDSP screen)) EUB0000705a ADRA2C"}, "[5]": {"target": "Beta-3 adrenergic receptor (Homo sapiens, UniProt P13945)", "sequence (P13945 whole entry)": "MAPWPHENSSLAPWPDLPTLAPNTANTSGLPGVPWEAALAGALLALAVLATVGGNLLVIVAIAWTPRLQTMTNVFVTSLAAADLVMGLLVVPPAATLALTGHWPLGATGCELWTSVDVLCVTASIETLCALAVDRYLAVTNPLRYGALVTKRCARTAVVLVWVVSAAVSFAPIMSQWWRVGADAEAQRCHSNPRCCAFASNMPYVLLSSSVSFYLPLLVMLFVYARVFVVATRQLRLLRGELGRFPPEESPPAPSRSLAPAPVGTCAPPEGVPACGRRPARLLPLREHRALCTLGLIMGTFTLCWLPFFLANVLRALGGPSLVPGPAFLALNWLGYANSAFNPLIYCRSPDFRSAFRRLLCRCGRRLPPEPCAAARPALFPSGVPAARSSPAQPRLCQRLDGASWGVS", "test": "Selectivity interaction (GPCR panel (PDSP screen)) EUB0000705a ADRB3"}, "Mu-type opioid receptor": {"target": "Mu-type opioid receptor (Homo sapiens, UniProt P35372)", "sequence (P35372 whole entry)": "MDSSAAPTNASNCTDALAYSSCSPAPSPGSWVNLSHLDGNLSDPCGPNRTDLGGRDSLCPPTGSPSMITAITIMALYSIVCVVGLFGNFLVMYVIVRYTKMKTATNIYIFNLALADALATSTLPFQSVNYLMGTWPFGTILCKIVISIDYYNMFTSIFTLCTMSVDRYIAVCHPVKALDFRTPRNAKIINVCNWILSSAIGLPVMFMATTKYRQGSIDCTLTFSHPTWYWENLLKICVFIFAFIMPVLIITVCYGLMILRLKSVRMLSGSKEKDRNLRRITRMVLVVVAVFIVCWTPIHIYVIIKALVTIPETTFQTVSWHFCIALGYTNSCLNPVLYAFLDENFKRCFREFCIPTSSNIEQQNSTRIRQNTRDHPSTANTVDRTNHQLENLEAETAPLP", "test": "Selectivity interaction (GPCR panel (PDSP screen)) EUB0000705a OPRM1"}, "[6]": {"target": "T4, Leucine-rich repeat serine/threonine-protein kinase 2 (Homo sapiens, UniProt Q5S007)", "test": "Selectivity interaction (KinomeScan (DiscoverX)) EUB0000705a LRRK2", "settings": "at 1 µM"}, "[7]": {"target": "T4, Leucine-rich repeat serine/threonine-protein kinase 2", "test": "Selectivity interaction (NanoBRET assay (HEK293T cells)) EUB0000705a LRRK2"}, "[8]": {"target": "Dual specificity tyrosine-phosphorylation-regulated kinase 1B (Homo sapiens, UniProt Q9Y463)", "sequence (Q9Y463 whole entry, looked up)": "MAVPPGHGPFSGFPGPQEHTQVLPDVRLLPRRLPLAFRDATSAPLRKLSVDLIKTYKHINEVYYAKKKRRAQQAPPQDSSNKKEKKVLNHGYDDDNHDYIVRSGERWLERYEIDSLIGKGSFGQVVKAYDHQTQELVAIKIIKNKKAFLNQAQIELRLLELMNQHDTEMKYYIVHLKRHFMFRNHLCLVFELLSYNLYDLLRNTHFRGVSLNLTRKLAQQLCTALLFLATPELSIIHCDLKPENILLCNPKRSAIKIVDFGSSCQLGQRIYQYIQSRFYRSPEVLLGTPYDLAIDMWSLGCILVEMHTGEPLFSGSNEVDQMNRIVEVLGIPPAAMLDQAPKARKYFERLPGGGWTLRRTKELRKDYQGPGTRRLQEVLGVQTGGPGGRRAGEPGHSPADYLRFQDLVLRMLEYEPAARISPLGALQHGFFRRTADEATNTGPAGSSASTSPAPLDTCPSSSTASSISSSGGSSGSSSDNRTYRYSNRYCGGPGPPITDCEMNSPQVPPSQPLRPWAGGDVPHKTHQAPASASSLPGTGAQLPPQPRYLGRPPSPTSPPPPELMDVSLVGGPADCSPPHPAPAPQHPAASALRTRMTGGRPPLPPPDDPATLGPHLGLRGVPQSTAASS", "test": "Selectivity interaction (KinomeScan (DiscoverX)) EUB0000321b DYRK1B", "settings": "at 100 nM"}, "[9]": {"target": "Dual specificity tyrosine-phosphorylation-regulated kinase 1A (Homo sapiens, UniProt Q13627)", "test": "Selectivity interaction (KinomeScan (DiscoverX)) EUB0000321b DYRK1A", "settings": "at 100 nM"}, "[10]": {"target": "Mitogen-activated protein kinase kinase kinase 5 (Homo sapiens) (UniProt Q99683)", "test": "Selectivity interaction (KinomeScan (DiscoverX)) EUB0000321b MAP3K5", "settings": "at 100 nM"}, "[11]": {"target": "Mitogen-activated protein kinase kinase kinase 5 (Homo sapiens, UniProt Q99683)", "test": "Selectivity interaction (NanoBRET assay (HEK293T cells)) EUB0000321b MAP3K5"}, "[12]": {"target": "T5, Dual specificity mitogen-activated protein kinase kinase 5 (Homo sapiens) (UniProt Q13163)", "T5 sequence (whole entry)": "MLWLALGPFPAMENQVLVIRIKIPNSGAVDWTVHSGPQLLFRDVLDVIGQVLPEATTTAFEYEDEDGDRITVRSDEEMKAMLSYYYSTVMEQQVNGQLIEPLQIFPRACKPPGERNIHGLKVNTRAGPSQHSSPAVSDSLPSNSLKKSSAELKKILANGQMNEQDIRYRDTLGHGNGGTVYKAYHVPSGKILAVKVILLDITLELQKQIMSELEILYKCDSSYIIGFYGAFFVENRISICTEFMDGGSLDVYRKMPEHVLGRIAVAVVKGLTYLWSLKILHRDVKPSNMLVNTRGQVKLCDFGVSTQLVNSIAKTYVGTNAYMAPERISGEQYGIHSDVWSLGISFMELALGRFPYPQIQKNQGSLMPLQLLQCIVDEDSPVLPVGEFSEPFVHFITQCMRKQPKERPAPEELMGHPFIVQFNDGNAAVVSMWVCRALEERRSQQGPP", "test": "Selectivity interaction (KinomeScan (DiscoverX)) EUB0000321b MAP2K5", "settings": "at 100 nM"}, "[13]": {"target": "T6, Dual specificity mitogen-activated protein kinase kinase 5 (Homo sapiens, UniProt Q13163)", "T6 sequence (Q13163 whole entry)": "T5 sequence (whole entry)", "test": "Selectivity interaction (NanoBRET assay (HEK293T cells)) EUB0000321b MAP2K5"}, "[14]": {"target": "Receptor-type tyrosine-protein kinase FLT3 (Homo sapiens, UniProt P36888)", "test": "(§1) Selectivity interaction (NanoBRET assay (HEK293T cells)) EUB0000321b FLT3"}, "[15]": {"target": "Receptor-type tyrosine-protein kinase FLT3 (Homo sapiens, UniProt P36888, D835V)", "test": "as §1"}, "[16]": {"target": "T7, Mast/stem cell growth factor receptor Kit (Homo sapiens, UniProt P10721)", "T7 sequence (P10721 whole entry)": "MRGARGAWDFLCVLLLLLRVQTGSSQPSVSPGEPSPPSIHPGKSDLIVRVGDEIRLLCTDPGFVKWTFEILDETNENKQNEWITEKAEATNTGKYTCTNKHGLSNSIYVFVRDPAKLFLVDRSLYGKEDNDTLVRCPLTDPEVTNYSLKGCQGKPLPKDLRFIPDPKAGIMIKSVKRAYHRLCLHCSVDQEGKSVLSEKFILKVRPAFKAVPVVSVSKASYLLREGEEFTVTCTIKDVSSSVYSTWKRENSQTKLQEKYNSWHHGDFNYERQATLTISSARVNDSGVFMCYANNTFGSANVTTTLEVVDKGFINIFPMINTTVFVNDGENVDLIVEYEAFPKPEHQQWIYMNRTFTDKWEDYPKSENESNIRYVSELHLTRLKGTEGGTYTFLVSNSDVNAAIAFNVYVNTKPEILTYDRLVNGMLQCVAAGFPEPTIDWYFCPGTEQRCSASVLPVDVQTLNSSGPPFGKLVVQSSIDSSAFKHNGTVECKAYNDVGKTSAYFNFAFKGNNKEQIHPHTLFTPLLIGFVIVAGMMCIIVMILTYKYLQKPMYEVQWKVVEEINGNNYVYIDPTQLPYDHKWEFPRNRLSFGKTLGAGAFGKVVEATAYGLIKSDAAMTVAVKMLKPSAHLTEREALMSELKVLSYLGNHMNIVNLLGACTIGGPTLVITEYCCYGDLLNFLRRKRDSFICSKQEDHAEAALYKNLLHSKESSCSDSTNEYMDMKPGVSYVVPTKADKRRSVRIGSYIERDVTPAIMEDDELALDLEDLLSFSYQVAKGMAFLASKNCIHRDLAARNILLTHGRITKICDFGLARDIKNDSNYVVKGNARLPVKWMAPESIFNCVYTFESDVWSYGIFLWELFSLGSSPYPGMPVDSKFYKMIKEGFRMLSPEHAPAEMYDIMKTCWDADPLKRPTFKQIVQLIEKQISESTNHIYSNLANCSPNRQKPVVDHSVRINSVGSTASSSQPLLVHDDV", "test": "Selectivity interaction (KinomeScan (DiscoverX)) EUB0000321b KIT", "settings": "at 100 nM"}, "[17]": {"target": "T7, Mast/stem cell growth factor receptor Kit", "test": "Selectivity interaction (NanoBRET assay (HEK293T cells)) EUB0000321b KIT"}, "[18]": {"target": "T8, Platelet-derived growth factor receptor alpha (Homo sapiens, UniProt P16234)", "T8 sequence (P16234 whole entry)": "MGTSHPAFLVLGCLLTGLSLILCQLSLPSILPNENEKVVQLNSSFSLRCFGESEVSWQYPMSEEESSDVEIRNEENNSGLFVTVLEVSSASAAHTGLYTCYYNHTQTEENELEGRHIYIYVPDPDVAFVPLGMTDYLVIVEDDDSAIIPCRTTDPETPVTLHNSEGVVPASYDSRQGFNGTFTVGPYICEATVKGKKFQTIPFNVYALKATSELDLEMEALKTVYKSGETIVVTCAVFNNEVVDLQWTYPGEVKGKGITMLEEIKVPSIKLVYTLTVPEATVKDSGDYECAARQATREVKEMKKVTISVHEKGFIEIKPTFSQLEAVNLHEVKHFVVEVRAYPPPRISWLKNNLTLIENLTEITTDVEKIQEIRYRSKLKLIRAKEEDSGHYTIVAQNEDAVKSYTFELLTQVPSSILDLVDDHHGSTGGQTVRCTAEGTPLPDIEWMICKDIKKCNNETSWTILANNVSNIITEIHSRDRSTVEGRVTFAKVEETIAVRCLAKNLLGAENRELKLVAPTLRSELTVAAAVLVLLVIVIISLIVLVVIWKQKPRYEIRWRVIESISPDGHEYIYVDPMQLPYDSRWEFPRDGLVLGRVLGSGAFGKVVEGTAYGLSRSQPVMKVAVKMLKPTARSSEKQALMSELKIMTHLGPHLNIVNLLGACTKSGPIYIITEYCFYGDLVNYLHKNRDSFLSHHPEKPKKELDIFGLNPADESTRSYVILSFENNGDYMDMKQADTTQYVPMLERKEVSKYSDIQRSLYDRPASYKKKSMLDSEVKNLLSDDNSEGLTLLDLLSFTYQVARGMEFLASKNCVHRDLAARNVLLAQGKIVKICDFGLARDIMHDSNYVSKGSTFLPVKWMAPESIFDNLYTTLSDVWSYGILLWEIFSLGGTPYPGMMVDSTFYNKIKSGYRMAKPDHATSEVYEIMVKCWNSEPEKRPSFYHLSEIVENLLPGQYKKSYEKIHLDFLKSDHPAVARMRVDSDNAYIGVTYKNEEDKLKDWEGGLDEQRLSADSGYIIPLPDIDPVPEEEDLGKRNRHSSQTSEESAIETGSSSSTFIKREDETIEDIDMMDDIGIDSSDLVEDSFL", "test": "Selectivity interaction (KinomeScan (DiscoverX)) EUB0000321b PDGFRA", "settings": "at 100 nM"}, "[19]": {"target": "T8, Platelet-derived growth factor receptor alpha", "test": "Selectivity interaction (NanoBRET assay (HEK293T cells)) EUB0000321b PDGFRA"}, "[20]": {"target": "T9, Platelet-derived growth factor receptor beta (Homo sapiens, UniProt P09619)", "T9 sequence (P09619 whole entry)": "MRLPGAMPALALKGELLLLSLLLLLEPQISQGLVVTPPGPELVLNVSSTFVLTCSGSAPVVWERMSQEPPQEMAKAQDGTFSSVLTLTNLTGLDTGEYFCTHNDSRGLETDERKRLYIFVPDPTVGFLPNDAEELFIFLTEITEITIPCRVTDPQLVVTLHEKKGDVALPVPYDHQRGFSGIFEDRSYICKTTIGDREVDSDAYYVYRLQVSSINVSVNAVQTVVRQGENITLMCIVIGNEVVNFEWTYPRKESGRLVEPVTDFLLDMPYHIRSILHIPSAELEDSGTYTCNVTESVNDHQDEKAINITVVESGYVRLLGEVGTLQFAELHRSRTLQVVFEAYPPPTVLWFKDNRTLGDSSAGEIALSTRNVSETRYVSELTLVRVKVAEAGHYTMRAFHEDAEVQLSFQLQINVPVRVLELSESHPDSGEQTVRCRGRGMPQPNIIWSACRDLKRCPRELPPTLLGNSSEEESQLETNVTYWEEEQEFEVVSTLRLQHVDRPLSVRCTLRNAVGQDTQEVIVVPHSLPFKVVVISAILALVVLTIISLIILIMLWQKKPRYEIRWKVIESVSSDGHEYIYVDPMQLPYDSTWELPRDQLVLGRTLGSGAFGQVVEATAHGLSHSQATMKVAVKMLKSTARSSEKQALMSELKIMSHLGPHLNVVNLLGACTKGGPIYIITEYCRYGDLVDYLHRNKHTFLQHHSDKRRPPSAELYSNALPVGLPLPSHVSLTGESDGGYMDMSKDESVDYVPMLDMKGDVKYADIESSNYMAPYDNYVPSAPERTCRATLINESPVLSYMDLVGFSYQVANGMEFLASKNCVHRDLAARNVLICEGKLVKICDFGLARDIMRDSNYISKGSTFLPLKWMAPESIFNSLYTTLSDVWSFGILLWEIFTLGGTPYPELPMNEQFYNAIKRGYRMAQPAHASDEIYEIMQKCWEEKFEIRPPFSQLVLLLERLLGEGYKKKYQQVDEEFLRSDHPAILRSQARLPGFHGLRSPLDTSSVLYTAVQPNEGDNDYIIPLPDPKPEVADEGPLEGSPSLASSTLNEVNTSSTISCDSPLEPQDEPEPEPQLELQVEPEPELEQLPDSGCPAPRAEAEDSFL", "test": "Selectivity interaction (NanoBRET assay (HEK293T cells)) EUB0000321b PDGFRB"}, "[21]": {"target": "T9, Platelet-derived growth factor receptor beta", "test": "Selectivity interaction (KinomeScan (DiscoverX)) EUB0000321b PDGFRB", "settings": "at 100 nM"}}, "data": [{"smiles": "CN1CCN(C(=O)C(C)(C)c2ccc(C(=O)Nc3cn4cc(-c5cc(C(C)(C)C)cc(C(C)(C)C)c5)ccc4n3)cc2)CC1", "note": "[T3-CLK-N]", "values": [{"measurement": "Ki", "setting": "[1]", "value": 2.18, "unit": "µM"}, {"measurement": "Ki", "setting": "[2]", "value": 1.67, "unit": "µM"}, {"measurement": "Ki", "setting": "[3]", "value": "> 10", "unit": "µM"}, {"measurement": "Ki", "setting": "[4]", "value": "> 10", "unit": "µM"}, {"measurement": "Ki", "setting": "[5]", "value": "> 10", "unit": "µM"}, {"measurement": "Ki", "setting": "Mu-type opioid receptor", "value": 4.52, "unit": "µM"}, {"measurement": "% of control", "setting": "[6]", "value": "> 95", "unit": "%"}, {"measurement": "IC50", "setting": "[7]", "value": "> 10", "unit": "µM"}]}, {"smiles": "CN1CCN(C(=O)C(C)(C)c2ccc(C(=O)Nc3cn4cc(-c5ccncc5)ccc4n3)cc2)CC1", "note": "[T3-CLK]", "values": [{"measurement": "% of control", "setting": "[8]", "value": 4.4, "unit": "%"}, {"measurement": "% of control", "setting": "[9]", "value": 0.3, "unit": "%"}, {"measurement": "% of control", "setting": "[10]", "value": 19, "unit": "%"}, {"measurement": "IC50", "setting": "[11]", "value": "> 10", "unit": "µM"}, {"measurement": "% of control", "setting": "[12]", "value": 4.9, "unit": "%"}, {"measurement": "IC50", "setting": "[13]", "value": "> 10", "unit": "µM"}, {"measurement": "IC50", "setting": "[14]", "value": 2.44, "unit": "µM"}, {"measurement": "IC50", "setting": "[15]", "value": 138, "unit": "µM"}, {"measurement": "% of control", "setting": "[16]", "value": 14, "unit": "%"}, {"measurement": "IC50", "setting": "[17]", "value": 2.44, "unit": "µM"}, {"measurement": "% of control", "setting": "[18]", "value": 29, "unit": "%"}, {"measurement": "IC50", "setting": "[19]", "value": 2.52, "unit": "µM"}, {"measurement": "IC50", "setting": "[20]", "value": 3, "unit": "µM"}, {"measurement": "% of control", "setting": "[21]", "value": 24, "unit": "%"}]}]}
